From paper PMC2929374 (Chemmedchem, 2009)
Like-named read-outs stand apart in the source and are kept apart here.

Columns and labels:
[1] = target: T1, T. brucei TryR (trypanothione reductase; TyrR) (Trypanosoma brucei, UniProt P39051); test: DTNB-coupled TryR assay, absorbance, 384-well; type: biochemical
[2] = target: T1, T. brucei TryR (trypanothione reductase; TyrR); test: DTNB-coupled kinetics, global fit; type: biochemical
[3] = read-out: TryR IC50, pH 7.4, 40 mM HEPES, 1 mM EDTA, 6 μM trypanothione, 50 μM DTNB, 150 μM NADPH, room temperature

T1 sequence (P39051 whole entry): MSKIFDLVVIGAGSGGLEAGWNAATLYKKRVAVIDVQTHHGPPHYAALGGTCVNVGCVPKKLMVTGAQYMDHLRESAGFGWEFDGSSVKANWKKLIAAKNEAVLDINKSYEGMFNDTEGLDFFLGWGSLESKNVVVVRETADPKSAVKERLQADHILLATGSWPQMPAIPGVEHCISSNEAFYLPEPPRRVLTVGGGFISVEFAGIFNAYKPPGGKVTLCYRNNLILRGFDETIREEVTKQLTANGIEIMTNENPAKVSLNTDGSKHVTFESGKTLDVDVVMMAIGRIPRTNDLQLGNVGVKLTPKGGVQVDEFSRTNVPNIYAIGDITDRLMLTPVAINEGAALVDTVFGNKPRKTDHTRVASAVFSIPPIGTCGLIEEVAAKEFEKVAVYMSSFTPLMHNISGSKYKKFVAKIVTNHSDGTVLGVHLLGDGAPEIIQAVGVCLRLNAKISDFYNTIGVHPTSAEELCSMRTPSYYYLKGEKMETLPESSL

| SMILES | IC50 [1] | other results |
| --- | --- | --- |
| c1ccc2sc(C3(N4CCCCC4)CCCCC3)cc2c1 [compound 1, 1-(1-(Benzo[b]thiophen-2-yl)cyclohexyl)piperidine] |  | IC50 [1, 3]: 3.3 µM |
| c1csc(C2(N3CCCCC3)CCCCC2)c1 [compound 3] |  | IC50 [1, 3]: > 100 µM |
| c1ccc(-c2ccc(C3(N4CCCCC4)CCCCC3)cc2)cc1 [compound 4] | > 100 µM |  |
| c1ccc2oc(C3(N4CCCCC4)CCCCC3)cc2c1 [compound 5] | 4.4 µM | Ki [2]: 1.46 µM |
| c1ccc2c(C3(N4CCCCC4)CCCCC3)cccc2c1 [compound 6] | > 100 µM |  |
| c1ccc2cc(C3(N4CCCCC4)CCCCC3)ccc2c1 [compound 7] | 28 µM |  |
| c1ccc2sc(C3(N4CCCCC4)CCCCC3)nc2c1 [compound 9] | > 100 µM |  |
| Brc1ccc2sc(C3(N4CCCCC4)CCCCC3)cc2c1 [compound 12, 1-(1-(5-Bromo-benzo[b]thiophen-2-yl)cyclohexyl)piperidine] | > 100 µM |  |
| c1ccc2sc(C3(N4CCCC4)CCCCC3)cc2c1 [compound 13] |  | IC50 [1, 3]: 0.91 µM |
| CCN(CC)C1(c2cc3ccccc3s2)CCCCC1 [compound 14] |  | IC50 [1, 3]: 5 µM |
| c1ccc2sc(C3(N4CCOCC4)CCCCC3)cc2c1 [compound 15] | 11 µM |  |
| CN1CCN(C2(c3cc4ccccc4s3)CCCCC2)CC1 [compound 16] | 10 µM |  |
| c1ccc2sc(C3(N4CCCCC4)CCCC3)cc2c1 [compound 17] | 11 µM |  |
| CN1CCC(c2cc3ccccc3s2)(N2CCCCC2)CC1 [compound 18] | 0.93 µM |  |
| CC(C)(c1cc2ccccc2s1)N1CCCCC1 [compound 19] | 15 µM |  |
| O=C(c1cc2ccccc2s1)C1(N2CCCCC2)CCCCC1 [compound 24, Benzo[b]thiophen-2-yl(1-(piperidin-1-yl)cyclohexyl)methanone] | > 100 µM |  |
| OC(c1ccccc1)(c1ccccc1)C1(N2CCCCC2)CCCCC1 [compound 25, Diphenyl(1-(piperidin-1-yl)cyclohexyl)methanol] | > 100 µM |  |
| CC(C)(C)OC(=O)N1CCC(c2cc3ccccc3s2)(N2CCCCC2)CC1 [compound 27, tert-Butyl 4′-(benzo[b]thiophen-2-yl)-1,4′-bipiperidine-1′-carboxylate] | > 100 µM |  |
| c1ccc2sc(C3(N4CCCCC4)CCNCC3)cc2c1 [compound 28, 4′-(Benzo[b]thiophen-2-yl)-[1,4′]bipiperidine] | 5.1 µM |  |
| CC(=O)N1CCC(c2cc3ccccc3s2)(N2CCCCC2)CC1 [compound 29] | 6.6 µM |  |
| O=C(c1ccccc1)N1CCC(c2cc3ccccc3s2)(N2CCCCC2)CC1 [compound 30, (4′-(Benzo[b]thiophen-2-yl)-1,4′-bipiperidinyl-1′-yl)(phenyl)methanone] | 13 µM |  |
| O=C(Cc1ccccc1)N1CCC(c2cc3ccccc3s2)(N2CCCCC2)CC1 [compound 31, 1-(4′-(Benzo[b]thiophen-2-yl)-1,4′-bipiperidinyl-1′-yl)-2-phenylethanone] | 12 µM |  |
| CN(C)CC(=O)N1CCC(c2cc3ccccc3s2)(N2CCCCC2)CC1 [compound 32, 1-(4′-(Benzo[b]thiophen-2-yl)-1,4′-bipiperidinyl-1′-yl)-2-(dimethylamino)ethanone] | 2.6 µM |  |
| c1ccc2sc(C3(N4CCCCC4)CCN(CCN4CCOCC4)CC3)cc2c1 [compound 33, 4-(2-(4′-(Benzo[b]thiophen-2-yl)-1,4′-bipiperidin-1′-yl)ethyl)morpholine] | 4.4 µM |  |
| c1ccc(CN2CCC(c3cc4ccccc4s3)(N3CCCCC3)CC2)cc1 [compound 34, 4′-(Benzo[b]thiophen-2-yl)-1′-benzyl-1,4′-bipiperidine] | 19 µM |  |
| CN(C)CCN1CCC(c2cc3ccccc3s2)(N2CCCCC2)CC1 [compound 35, 2-(4′-(Benzo[b]thiophen-2-yl)-1,4′-bipiperidinyl-1′-yl)-N,N-dimethylethanamine] | > 100 µM |  |
